Literature values in patent US8906604B2, “Store-operated calcium cellular assay” (National Center for Biological Sciences, priority 2009, dated 2014).

Details: in Drosophila S2 cells; published value (Hardie et al. 1996); read-out: Kd value for Indo-1

- Kd: 1160 nM
SMILES: Cc1ccc(N(CC(=O)O)CC(=O)O)c(OCCOc2cc(-c3cc4ccc(C(=O)O)cc4[nH]3)ccc2N(CC(=O)O)CC(=O)O)c1 [Indo-1]
